Test results taken from ChEMBL document CHEMBL5241127, “Design, synthesis and biological evaluation of novel 9-N-substituted-13-alkylberberine derivatives from Chinese medicine as anti-hepatocellular carcinoma agents” (Bioorg Med Chem, 2023).
The source made the active and inactive calls. No cut-off for these calls is given here.

How the values were obtained:
HepG2 [1] = assay: Antiproliferative activity against human HepG2 cells assessed as inhibition of cell growth incubated for 72 hrs by MTT assay; type: functional, cell-based; conditions: HepG2, 72 h
SK-HEP1 = assay: Antiproliferative activity against human SK-HEP1 cells assessed as inhibition of cell growth incubated for 72 hrs by MTT assay; type: functional, cell-based; conditions: SK-HEP1, 72 h
Huh-7 = assay: Antiproliferative activity against human Huh-7 cells assessed as inhibition of cell growth incubated for 72 hrs by MTT assay; type: functional, cell-based; conditions: Huh-7, 72 h
Hep 3B2 = assay: Antiproliferative activity against human Hep3B cells assessed as inhibition of cell growth incubated for 72 hrs by MTT assay; type: functional, cell-based
HepG2 [2] = assay: Antiproliferative activity against cisplatin-resistant human HepG2 cells assessed as inhibition of cell growth incubated for 72 hrs by MTT assay; type: functional, cell-based; conditions: HepG2, 72 h
[3] = Antiproliferative activity against human LX2 cells assessed as inhibition of cell growth incubated for 72 hrs by MTT assay; type: functional, cell-based; conditions: LX-2, 72 h
HepG2 [4] = assay: Potency index, ratio of cisplatin IC50 to test compound IC50 for antiproliferative activity against human HepG2 cells assessed as inhibition of cell growth incubated for 72 hrs by MTT assay; type: functional
HepG2 [5] = assay: Potency index, ratio of cisplatin IC50 to test compound IC50 for antiproliferative activity against cisplatin-resistant human HepG2 cells assessed as inhibition of cell growth incubated for 72 hrs by MTT assay; type: functional
Quadruplex DNA [6] = assay: Stabilization of c-MYC G4-quadruplex DNA in human HepG2 cells assessed as BG4 foci formation at 0.3 uM incubated for 72 hrs by confocal laser scanning microscope based analysis; type: cell-based
Quadruplex DNA [7] = assay: Stabilization of c-MYC G4-quadruplex DNA in human HepG2 cells assessed as colocalization with BG4 in G4-forming region at 0.3 uM incubated for 72 hrs by confocal laser scanning microscope based analysis; type: cell-based
Quadruplex DNA [8] = assay: Stabilization of c-MYC G4-quadruplex DNA in human HepG2 cells assessed as downregulation of c-myc expression incubated for 72 hrs by Western blot analysis; type: cell-based; conditions: dose 0.15-0.6 µM
HepG2 [9] = assay: Induction of cell cycle arrest in human HepG2 cells assessed as accumulation of cells at G2 phase at 0.15 to 0.6 uM incubated for 72 hrs by RNaseA/PI staining based flow cytometry analysis (reference value: 12.99%); type: functional; conditions: dose 0.15-0.6 µM
HepG2 [10] = assay: Induction of cell cycle arrest in human HepG2 cells assessed as accumulation of cells at S phase at 0.15 to 0.6 uM incubated for 72 hrs by RNaseA/PI staining based flow cytometry analysis (reference value: 35.98%); type: functional; conditions: dose 0.15-0.6 µM
HepG2 [11] = assay: Induction of G2/M phase cell cycle arrest in human HepG2 cells assessed as upregulation of p-cdc25c protein expression incubated for 72 hrs by Western blot analysis; type: functional, cell-based; conditions: dose 0.15-0.6 µM
HepG2 [12] = assay: Induction of G2/M phase cell cycle arrest in human HepG2 cells assessed as downregulation of cdc2 protein expression incubated for 72 hrs by Western blot analysis; type: functional, cell-based; conditions: dose 0.15-0.6 µM
HepG2 [13] = assay: Induction of G2/M phase cell cycle arrest in human HepG2 cells assessed as downregulation of cyclinB1 protein expression incubated for 72 hrs by Western blot analysis; type: functional, cell-based; conditions: dose 0.15-0.6 µM
HepG2 [14] = assay: Induction of apoptosis in human HepG2 cells assessed as increase in total apoptotic cells at 0.15 to 0.6 uM incubated for 72 hrs by AnnexinV-FITC/propidium iodide staining based flow cytometry (reference value: 4.1%); type: functional; conditions: dose 0.15-0.6 µM
HepG2 [15] = assay: Induction of apoptosis in human HepG2 cells assessed as increase in Bax protein expression incubated for 72 hrs by Western blot analysis; type: functional, cell-based; conditions: dose 0.15-0.6 µM
HepG2 [16] = assay: Induction of apoptosis in human HepG2 cells assessed as increase in cytochrome C protein expression incubated for 72 hrs by Western blot analysis; type: functional, cell-based; conditions: dose 0.15-0.6 µM
HepG2 [17] = assay: Induction of apoptosis in human HepG2 cells assessed as increase in cleaved caspase 3 expression incubated for 72 hrs by Western blot analysis; type: functional, cell-based; conditions: dose 0.15-0.6 µM
HepG2 [18] = assay: Induction of apoptosis in human HepG2 cells assessed as reduction in Bcl-2 protein expression at […] incubated for 72 hrs by Western blot analysis; type: functional, cell-based; conditions: dose lower 0.15 µM
HepG2 [19] = assay: Induction of ROS production in human HepG2 cells assessed as increase in ROS positive cells at 0 to 0.60 uM incubated for 72 hrs by DCF-DA staining based flow cytometry analysis (reference value: 4.21%); type: functional; conditions: dose 0-0.6 µM
HepG2 [20] = assay: Induction of ROS production in human HepG2 cells assessed as increase in ROS positive cells at 0.06 uM preincubated with ROS scavenger, NAC followed by compound addition and further incubated for 72 hrs by DCF-DA staining based flow cytometry analysis (reference value: 4.21%); type: functional
HepG2 [21] = assay: Induction of mitochondrial dysfunction in human HepG2 cells assessed as increase in cells with collapsed mitochondrial membrane potential at 0.15 to 0.6 uM incubated for 72 hrs by JC-1 staining based flow cytometry analysis (reference value: 4.84%); type: functional; conditions: dose 0.15-0.6 µM
HepG2 [22] = assay: Downregulation of p-PI3K protein expression in human HepG2 cells incubated for 72 hrs by Western blot analysis; type: functional, cell-based; conditions: dose 0-0.6 µM
HepG2 [23] = assay: Downregulation of p-AKT protein expression in human HepG2 cells incubated for 72 hrs by Western blot analysis; type: functional, cell-based; conditions: dose 0-0.6 µM
HepG2 [24] = assay: Effect on PI3K total protein level in human HepG2 cells at 0 to 0.6 uM incubated for 72 hrs by Western blot analysis; type: functional, cell-based; conditions: dose 0-0.6 µM
HepG2 [25] = assay: Effect on AKT total protein level in human HepG2 cells at 0 to 0.6 uM incubated for 72 hrs by Western blot analysis; type: functional, cell-based; conditions: dose 0-0.6 µM
[26] = Half life in Sprague-Dawley rat at 1 mg/kg, iv measured for 24 hrs by LC-MS/MS analysis; type: ADME, organism-based; conditions: in vivo
[27] = Initial plasma concentration in Sprague-Dawley rat at 1 mg/kg, iv by LC-MS/MS analysis; type: ADME, organism-based
[28] = Drug concentration in Sprague-Dawley rat plasma at 1 mg/kg, iv measured after 5 mins by LC-MS/MS analysis; type: ADME, organism-based
[29] = MRT (0 to t) in Sprague-Dawley rat at 1 mg/kg, iv measured for 24 hrs by LC-MS/MS analysis; type: ADME, organism-based; conditions: in vivo
[30] = AUC (0 to t) in Sprague-Dawley rat at 1 mg/kg, iv measured for 24 hrs by LC-MS/MS analysis; type: ADME, organism-based; parameters: dose 1 mg/kg, time 24 hrs, route iv; conditions: in vivo
[31] = Clearance in Sprague-Dawley rat at 1 mg/kg, iv measured for 24 hrs by LC-MS/MS analysis; type: ADME, organism-based; conditions: in vivo
H22 [32] = assay: Antitumor activity against […] xenografted in ICR mouse assessed as reduction in tumor volume administered intravenously for 21 days and measured every 2 days; type: functional, cell-based; conditions: dose 10-20 mg/kg, route iv, time 21.0 day
H22 [33] = assay: Antitumor activity against […] xenografted in ICR mouse assessed as reduction in tumor weight administered intravenously for 21 days; type: functional, cell-based; conditions: dose 10-20 mg/kg, route iv, time 21.0 day
H22 [34] = assay: Antitumor activity against […] xenografted in ICR mouse assessed as inhibition of tumor growth at 10 mg/kg, iv administered for 21 days and measured every 2 days relative to control; type: functional; conditions: H22, 504 h, time 21 day, read-out: TGI
H22 [35] = assay: Antitumor activity against […] xenografted in ICR mouse assessed as inhibition of tumor growth at 20 mg/kg, iv administered for 21 days and measured every 2 days relative to control; type: functional; conditions: H22, 504 h, time 21 day, read-out: TGI
[36] = Toxicity in ICR mouse xenografted with […] H22 cells assessed as reduction in body weight at 10 to 20 mg/kg, iv administered for 21 days and measured every 2 days; type: organism-based; conditions: in vivo, 504 h, dose 10-20 mg/kg, time 21 day
[37] = Toxicity in ICR mouse xenografted with […] H22 cells assessed as abnormalities in heart at 20 mg/kg, iv administered for 21 days; type: organism-based; conditions: in vivo, 504 h, time 21 day
[38] = Toxicity in ICR mouse xenografted with […] H22 cells assessed as abnormalities in liver at 20 mg/kg, iv administered for 21 days; type: organism-based; conditions: in vivo, 504 h, time 21 day
[39] = Toxicity in ICR mouse xenografted with […] H22 cells assessed as abnormalities in spleen at 20 mg/kg, iv administered for 21 days; type: organism-based; conditions: in vivo, 504 h, time 21 day
[40] = Toxicity in ICR mouse xenografted with […] H22 cells assessed as abnormalities in lung at 20 mg/kg, iv administered for 21 days; type: organism-based; conditions: in vivo, 504 h, time 21 day
[41] = Toxicity in ICR mouse xenografted with […] H22 cells assessed as abnormalities in kidney at 20 mg/kg, iv administered for 21 days; type: organism-based; conditions: in vivo, 504 h, time 21 day
Quadruplex DNA [42] = assay: Binding affinity to c-MYC G4-quadruplex DNA (unknown origin) using fluorescent tagged FPu18T model assessed as stabilization by measuring change in melting temperature at 2 uM by fluorescence based analysis; type: nucleic-acid assay
DNA = assay: Binding affinity to duplex DNA (unknown origin) using fluorescent tagged F10T model assessed as stabilization by measuring change in melting temperature at 2 uM by fluorescence based analysis; type: nucleic-acid assay
Quadruplex DNA [43] = assay: Binding affinity to c-MYC G4-quadruplex DNA (unknown origin) using fluorescent tagged FPu18T model assessed as stabilization by measuring change in melting temperature at 2 uM incubated in presence of non-fluorescent ds26 DNA by fluorescence based analysis; type: nucleic-acid assay

CCCCCCCCc1c2[n+](cc3c(NCCN(C)C)c(OC)ccc13)CCc1cc3c(cc1-2)OCO3.[Cl-]
IC50 (HepG2 [1]): 0.64 µM | IC50 (SK-HEP1): 1.07 µM | IC50 (Huh-7): 0.58 µM | IC50 (Hep 3B2): 1.15 µM | IC50 (HepG2 [2]): 2.12 µM | IC50 [3]: 8.62 µM | Ratio IC50 (HepG2 [4]): >10 | Ratio IC50 (HepG2 [5]): >40 | Activity (Quadruplex DNA [6]): Active | Activity (Quadruplex DNA [7]): Active | Activity (Quadruplex DNA [8]): Dose-Dependent Effect | Activity (HepG2 [9]): 27.61% | Activity (HepG2 [10]): 21.63% | Activity (HepG2 [11]): Dose-Dependent Effect | Activity (HepG2 [12]): Dose-Dependent Effect | Activity (HepG2 [13]): Dose-Dependent Effect | Activity (HepG2 [14]): 51.25% | Activity (HepG2 [15]): Dose-Dependent Effect | Activity (HepG2 [16]): Dose-Dependent Effect | Activity (HepG2 [17]): Dose-Dependent Effect | Activity (HepG2 [18]): Active | Activity (HepG2 [19]): 52.48% | Activity (HepG2 [20]): 3.67% | Activity (HepG2 [21]): 40.73% | Activity (HepG2 [22]): Dose-Dependent Effect | Activity (HepG2 [23]): Dose-Dependent Effect | Activity (HepG2 [24]): inactive | Activity (HepG2 [25]): inactive | half-life [26]: 2.62 h | C0 [27]: 872 ng/mL | concentration at 5 min [28]: 758 ng/mL | MRT last at 24 h [29]: 1.81 h | AUC(0-t) at 24 h [30]: 674 ng·h/mL | clearance [31]: 21.7 mL/min/kg | Activity (H22 [32]): Dose-Dependent Effect | Activity (H22 [33]): Dose-Dependent Effect | inhibition in vivo at 10 mg/kg (H22 [34]): 51.8% | inhibition in vivo at 20 mg/kg (H22 [35]): 62.9% | Activity [36]: Non-Toxic | Activity [37]: Non-Toxic | Activity [38]: Non-Toxic | Activity [39]: Non-Toxic | Activity [40]: Non-Toxic | Activity [41]: Non-Toxic | ΔTm (Quadruplex DNA [42]): 21.4 °C | ΔTm (DNA): 0.2 °C | ΔTm (Quadruplex DNA [43]): 20.9 °C

CCCCCCCCc1c2[n+](cc3c(NCCCN4CCCC4)c(OC)ccc13)CCc1cc3c(cc1-2)OCO3
IC50 (HepG2 [1]): 1.37 µM | ΔTm (Quadruplex DNA [42]): 23.1 °C | ΔTm (DNA): 1.8 °C | ΔTm (Quadruplex DNA [43]): 19.3 °C

CCCCCCCCCCCCc1c2[n+](cc3c(NCCN(C)C)c(OC)ccc13)CCc1cc3c(cc1-2)OCO3
IC50 (HepG2 [1]): 1.24 µM

O=P1(N(CCCl)CCCl)NCCCO1 (configuration not stated) [CYCLOPHOSPHAMIDE ANHYDROUS]
inhibition in vivo at 20 mg/kg (H22 [35]): 64.6%

CCCCCCCCCCc1c2[n+](cc3c(NCCN(C)C)c(OC)ccc13)CCc1cc3c(cc1-2)OCO3
IC50 (HepG2 [1]): 1.02 µM

CCCCCCc1c2[n+](cc3c(NCCN(C)C)c(OC)ccc13)CCc1cc3c(cc1-2)OCO3
IC50 (HepG2 [1]): 2.42 µM

CCCCCCCCc1c2[n+](cc3c(NCCN)c(OC)ccc13)CCc1cc3c(cc1-2)OCO3
IC50 (HepG2 [1]): 8.61 µM

CCCCCCCCc1c2[n+](cc3c(NCCCN)c(OC)ccc13)CCc1cc3c(cc1-2)OCO3
IC50 (HepG2 [1]): 7.18 µM
